Reference: US20100278932A1, “POLYMER MICELLES CONTAINING SN-38 FOR THE TREATMENT OF CANCER” (Intezyne Technologies, Incorporated, priority 2009, published 2010)
Structures can show the parent of a compound that is named as a salt.

Legend:
[1] = Pharmacokinetics in cannulated rats; type: in vivo; settings: 5 mg/kg (SN-38 equivalent mass) fast IV bolus, SN-38 in plasma, IT-141 of Example 40
Description: Pharmacokinetic data was generated from cannulated rats. […] Each group consisted of three rats.
150 μL of the supernatant was transferred to a HPLC vial for analysis. […] 150 μL of extraction solution was then added and vortexed for an additional 10 minutes. […] 150 μL of the supernatant was transferred to a HPLC vial for analysis. […] The mobile phase was 70% buffer and 30% acetonitrile (buffer=10 mM sodium phosphate with 0.1% triethyl amine adjusted to pH 3.5) flowing at 0.8 mL/min with an 18 minute run time. A calibration curve was constructed from the area under the curve of each of the seven standards and the SN-38 of each of the unknown samples determined from the curve.

[2] = cited from earlier work

SMILES	AUC [1] [hours*μg SN-38/mL]	solubility in aqueous solutions [2]
CCc1c2c(nc3ccc(OC(=O)N4CCC(N5CCCCC5)CC4)cc13)-c1cc3c(c(=O)n1C2)COC(=O)[C@]3(O)CC [CPT-11, irinotecan hydrochloride]	0.26	
CCc1c2c(nc3ccc(O)cc13)-c1cc3c(c(=O)n1C2)COC(=O)[C@]3(O)CC [SN-38, 7-ethyl-10-hydroxycamptothecin]		exceedingly insoluble
